Here are results for three molecules from article PMC4961458 (eLife, 2016).

Assay [1] addresses T1, PR-A (Homo sapiens, UniProt P06401).
T1 sequence (P06401 1-769 isoform P06401-2): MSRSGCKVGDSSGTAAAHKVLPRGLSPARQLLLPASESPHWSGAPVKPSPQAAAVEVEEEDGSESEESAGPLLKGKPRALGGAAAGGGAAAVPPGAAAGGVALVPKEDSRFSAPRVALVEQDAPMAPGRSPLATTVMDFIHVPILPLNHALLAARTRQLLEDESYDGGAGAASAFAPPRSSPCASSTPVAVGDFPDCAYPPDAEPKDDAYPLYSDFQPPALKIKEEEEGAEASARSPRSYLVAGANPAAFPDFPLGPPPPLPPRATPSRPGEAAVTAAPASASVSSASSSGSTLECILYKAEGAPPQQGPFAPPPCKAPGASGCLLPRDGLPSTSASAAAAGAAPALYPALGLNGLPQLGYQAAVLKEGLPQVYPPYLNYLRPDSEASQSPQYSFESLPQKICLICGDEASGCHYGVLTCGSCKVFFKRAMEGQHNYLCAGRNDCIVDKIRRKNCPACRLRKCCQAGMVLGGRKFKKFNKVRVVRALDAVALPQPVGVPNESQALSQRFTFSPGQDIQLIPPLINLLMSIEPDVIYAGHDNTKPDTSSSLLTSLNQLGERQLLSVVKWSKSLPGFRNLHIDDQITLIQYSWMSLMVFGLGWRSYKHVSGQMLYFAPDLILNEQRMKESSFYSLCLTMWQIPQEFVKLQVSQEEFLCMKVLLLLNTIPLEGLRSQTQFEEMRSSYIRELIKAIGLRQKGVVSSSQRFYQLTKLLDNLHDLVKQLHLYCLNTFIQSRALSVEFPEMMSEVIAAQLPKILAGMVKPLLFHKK
The assay can be described thus: PR-A transcriptional reporter assay, agonist mode (HEPG2 cells). The settings on record: % of maximal R5020-stimulated activity. Set-up: subcloning full-length PRa into pCMX; expressed in transfected cells; host or cells: HEPG2. The format is cell-based. The procedure:
Transcriptional assays were performed by seeding 100 μL of cells at a density of 250,000 cells/mL into 96-well cell culture plates in RPMI 1640 supplemented with 5% charcoal-stripped serum and allowed to attach overnight. […] Triplicate transfections were performed using 418 ng reporter vector (2X PRE-Luciferase for PR-A and PR-B, MMTV-Luciferase for MR), 50 ng CMVpRL (normalization vector), 10 ng NHR expression vector (CMX-PR-A, pCDNA-PR-B or 6R-MR), and 0.7 μL lipofectin. […] The final agonist concentration used in the antagonist assays was 1 nM. Following 24 hr incubation, the medium was removed and the cells were lysed in 40 μL of lysis buffer (25 mM Tris Phosphate, 2 mM CDTA, 10% Glycerol, 0.5% Triton X-100, 2 mM DTT). Firefly luciferase activity was measured immediately following the addition of 40 μL luciferase buffer (20 mM tricine, 0.1 mM EDTA, 1.07 mM (MgCO3)4 Mg(OH)2· 5H2O, 2.67 mM MgSO4, 33.3 mM DTT, 270 μM Coenzyme A, 470 μM luciferin, 530 μM ATP).
(In a reporter assay the amount or activity of a reporter protein is the signal.)

Assay [2] has as its target T2, PR-B (Homo sapiens, UniProt P06401).
T2 construct: cloning full-length human PRb into pCDNA; expressed in transfected cells; host or cells: HEPG2
T2 sequence (P06401 1-933): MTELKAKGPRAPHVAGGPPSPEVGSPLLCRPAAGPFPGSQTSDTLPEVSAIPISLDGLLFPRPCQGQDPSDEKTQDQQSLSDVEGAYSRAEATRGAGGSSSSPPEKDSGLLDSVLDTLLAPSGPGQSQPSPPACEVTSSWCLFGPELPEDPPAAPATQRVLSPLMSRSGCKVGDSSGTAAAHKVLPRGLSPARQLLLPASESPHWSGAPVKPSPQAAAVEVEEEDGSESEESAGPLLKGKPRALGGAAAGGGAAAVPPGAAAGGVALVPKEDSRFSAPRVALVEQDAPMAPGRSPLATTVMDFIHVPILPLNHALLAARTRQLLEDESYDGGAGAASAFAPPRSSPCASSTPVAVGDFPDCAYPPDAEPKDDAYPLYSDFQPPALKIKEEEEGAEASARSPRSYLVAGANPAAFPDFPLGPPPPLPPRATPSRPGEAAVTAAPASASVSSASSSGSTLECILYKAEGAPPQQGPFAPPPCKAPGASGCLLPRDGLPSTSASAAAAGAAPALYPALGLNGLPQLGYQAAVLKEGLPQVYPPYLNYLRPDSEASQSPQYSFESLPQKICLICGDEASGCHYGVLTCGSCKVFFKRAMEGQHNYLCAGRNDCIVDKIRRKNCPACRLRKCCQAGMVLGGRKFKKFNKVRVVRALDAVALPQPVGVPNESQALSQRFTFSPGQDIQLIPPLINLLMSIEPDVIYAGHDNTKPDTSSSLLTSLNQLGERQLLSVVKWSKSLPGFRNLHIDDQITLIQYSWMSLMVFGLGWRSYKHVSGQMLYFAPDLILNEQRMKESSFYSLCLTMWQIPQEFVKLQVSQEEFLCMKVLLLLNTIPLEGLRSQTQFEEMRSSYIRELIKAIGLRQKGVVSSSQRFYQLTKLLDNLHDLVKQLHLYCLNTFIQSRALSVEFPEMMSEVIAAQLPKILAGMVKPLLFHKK
The assay can be described thus: PR-B transcriptional reporter assay, agonist mode (HEPG2 cells). The format is cell-based. Particulars: % of maximal R5020-stimulated activity.

For assay [3], the target named is T2, PR-B. The assay can be described thus: PR-B transcriptional reporter assay, antagonist mode (HEPG2 cells). The format is cell-based. The settings on record: 1 nM R5020.
The target in assay [4] is T1, PR-A. The assay is described as follows: PR-A transcriptional reporter assay, antagonist mode (HEPG2 cells).
The subject of assay [5] is MDA-MB-231, an ER negative human breast cancer tumor model. The assay can be described thus: MDA-MB-231 xenograft efficacy. The format is in vivo, mice. Particulars: GDC-0810 100 mg/kg/day p.o., 29 days.
For assay [6], the target named is AR (Homo sapiens, UniProt P10275). The assay can be described thus: AR competitive radioligand binding assay (MDA-MB-453 cell lysate). Particulars: 0.6 nM 3H-R1881. The procedure:
After reaching 90% confluence, cells were harvested, resuspended in TEGM (10 mM TrisHCl pH 7.2, 1 mM EDTA, 10% glycerol, 1 mM β-mercaptoethanol, 10 mM Sodium Molybdate), and frozen in liquid nitrogen in 10 mL aliquots containing 2 × 10^7 cells/mL. […] Reactions were incubated at 4°C overnight. Bound and unbound ligands were separated by ultrafiltration using a Unifilter-96 GF/C filter plate (Perkin Elmer). Bound ^3H-R1881 was eluted in 30 μL/well Microscint-20 and quantified using a scintillation counter (Top Count).

Assay [7] concerns the target ERα (Homo sapiens, UniProt P03372). The assay can be described thus: MCF7 3X ERE-LUC transcriptional reporter assay (ERα antagonist). The settings on record: 0.1 nM 17β-estradiol, 24 hr.

Chain of AR (P10275 whole entry): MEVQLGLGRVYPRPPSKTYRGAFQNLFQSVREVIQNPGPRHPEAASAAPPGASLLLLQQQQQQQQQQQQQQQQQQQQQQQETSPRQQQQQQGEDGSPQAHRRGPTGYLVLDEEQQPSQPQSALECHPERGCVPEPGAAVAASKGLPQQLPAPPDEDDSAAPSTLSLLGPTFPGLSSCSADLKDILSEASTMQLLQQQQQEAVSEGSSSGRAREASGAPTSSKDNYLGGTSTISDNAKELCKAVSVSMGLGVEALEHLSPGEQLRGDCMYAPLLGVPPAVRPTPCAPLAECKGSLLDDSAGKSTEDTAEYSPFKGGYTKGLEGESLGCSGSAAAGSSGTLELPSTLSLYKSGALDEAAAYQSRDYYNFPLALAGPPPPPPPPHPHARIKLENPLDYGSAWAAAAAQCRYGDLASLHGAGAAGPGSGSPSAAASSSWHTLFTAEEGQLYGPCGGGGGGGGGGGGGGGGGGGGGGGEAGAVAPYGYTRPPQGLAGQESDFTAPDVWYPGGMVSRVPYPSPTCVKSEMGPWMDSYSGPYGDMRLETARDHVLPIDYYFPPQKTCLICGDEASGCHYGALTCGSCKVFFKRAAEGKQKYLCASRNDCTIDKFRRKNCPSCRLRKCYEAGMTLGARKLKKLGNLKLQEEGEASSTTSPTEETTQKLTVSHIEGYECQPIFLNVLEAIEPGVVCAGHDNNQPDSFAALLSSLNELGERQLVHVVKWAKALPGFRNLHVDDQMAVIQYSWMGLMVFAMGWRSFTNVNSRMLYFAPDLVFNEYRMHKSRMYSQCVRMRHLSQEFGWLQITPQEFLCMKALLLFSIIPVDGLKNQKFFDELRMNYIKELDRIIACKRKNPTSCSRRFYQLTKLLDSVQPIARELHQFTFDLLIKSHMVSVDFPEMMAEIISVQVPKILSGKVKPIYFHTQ
Chain of ERα (P03372 whole entry): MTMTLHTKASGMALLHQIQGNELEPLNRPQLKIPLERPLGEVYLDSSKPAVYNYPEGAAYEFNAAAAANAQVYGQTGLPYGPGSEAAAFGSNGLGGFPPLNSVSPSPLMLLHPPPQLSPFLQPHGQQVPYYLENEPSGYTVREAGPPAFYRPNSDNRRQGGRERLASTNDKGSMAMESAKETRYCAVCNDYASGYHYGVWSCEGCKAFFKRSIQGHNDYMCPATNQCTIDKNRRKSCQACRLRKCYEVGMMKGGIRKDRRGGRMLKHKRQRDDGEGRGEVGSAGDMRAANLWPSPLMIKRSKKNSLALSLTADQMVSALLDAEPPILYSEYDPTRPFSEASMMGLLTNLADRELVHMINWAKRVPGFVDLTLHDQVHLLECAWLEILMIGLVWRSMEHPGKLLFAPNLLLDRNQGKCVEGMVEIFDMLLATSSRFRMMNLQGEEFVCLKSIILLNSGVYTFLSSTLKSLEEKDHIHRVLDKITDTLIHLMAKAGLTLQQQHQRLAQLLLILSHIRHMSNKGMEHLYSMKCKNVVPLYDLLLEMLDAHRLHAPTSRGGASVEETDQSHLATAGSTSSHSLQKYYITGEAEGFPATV

The Emax is the greatest response seen or fitted, relative to the assay's reference. For orientation: IC50 means the point on the concentration scale where inhibition reaches its midpoint. For `CC/C(=C(\c1ccc(O)cc1)c1ccc(OCCN(C)C)cc1)c1ccccc1` [4-OH Tam, 4-hydroxytamoxifen], the figures for the maximum response (Emax) in assay [1] and in assay [2] were 0.04 ± 0.06% and 0.39 ± 0.23%, respectively. For the same molecule, the IC50 in assay [3] turned out to be 7.16 ± 2.15 µM; in assay [4], 12 ± 4.5 µM.

Turning to `CC/C(=C(/c1ccc(/C=C/C(=O)O)cc1)c1ccc2[nH]ncc2c1)c1ccc(F)cc1Cl` [GDC-0810], the Emax in assay [1] was 6.68 ± 7.97%; in assay [2], 0.35 ± 0.31%. Moreover, in assay [5], the “Tumor growth response, MDA-MB-231 xenograft” value is “did not exhibit any anti-tumor activity”.

In assay [6], `C[C@]12CC[C@@H]3c4ccc(O)cc4C[C@@H](CCCCCCCCC[S+]([O-])CCCC(F)(F)C(F)(F)F)[C@H]3[C@@H]1CC[C@@H]2O` (stereo partly drawn) [Fulvestrant] gave a concentration for half-maximal inhibition (IC50) above 4 µM. The “Transcription 3X ERE-LUC Emax” value in assay [7] was determined as 4.1 ± 2.6 % E2.
